Reference: publication PMC9617622 (Journal of medicinal chemistry, 2021)
Blank lines part the entries; values can stand above or below the compound they belong to.

What was measured:
[1] = target: human D2L receptor (Homo sapiens, UniProt P14416); settings: for decrease in binding affinity at D2R compared to eticlopride: relative to eticlopride; for binding affinity at D2R (in words): result in words
[2] = target: T1, D3R (Homo sapiens, UniProt P35462); settings: for decrease in binding affinity at D3R compared to eticlopride: relative to eticlopride; for binding affinity at D3R (in words) / D2R/D3R preference (in words): result in words; for Ki difference, O-alkylated v. N-alkylated linker with the same SP: D3R, 48 v. 15 and 49 v. 13; for D2R/D3R preference (in words): D3R v. D2R binding
[3] = target: T1, D3R; settings: result in words; compared to full agonist quinpirole and antagonist eticlopride

Sequence of human D2L receptor (P14416 whole entry): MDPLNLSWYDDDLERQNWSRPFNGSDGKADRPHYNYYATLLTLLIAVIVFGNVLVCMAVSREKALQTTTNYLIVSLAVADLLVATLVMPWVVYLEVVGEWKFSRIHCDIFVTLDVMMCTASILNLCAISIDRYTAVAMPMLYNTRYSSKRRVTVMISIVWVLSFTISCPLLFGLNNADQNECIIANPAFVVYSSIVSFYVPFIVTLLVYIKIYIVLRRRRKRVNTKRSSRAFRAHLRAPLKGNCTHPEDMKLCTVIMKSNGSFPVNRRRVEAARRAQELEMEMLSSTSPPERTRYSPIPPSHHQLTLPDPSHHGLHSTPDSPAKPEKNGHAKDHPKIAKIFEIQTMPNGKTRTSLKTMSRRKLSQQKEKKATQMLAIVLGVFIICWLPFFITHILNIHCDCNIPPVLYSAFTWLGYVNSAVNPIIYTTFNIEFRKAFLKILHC
T1 sequence (P35462 whole entry): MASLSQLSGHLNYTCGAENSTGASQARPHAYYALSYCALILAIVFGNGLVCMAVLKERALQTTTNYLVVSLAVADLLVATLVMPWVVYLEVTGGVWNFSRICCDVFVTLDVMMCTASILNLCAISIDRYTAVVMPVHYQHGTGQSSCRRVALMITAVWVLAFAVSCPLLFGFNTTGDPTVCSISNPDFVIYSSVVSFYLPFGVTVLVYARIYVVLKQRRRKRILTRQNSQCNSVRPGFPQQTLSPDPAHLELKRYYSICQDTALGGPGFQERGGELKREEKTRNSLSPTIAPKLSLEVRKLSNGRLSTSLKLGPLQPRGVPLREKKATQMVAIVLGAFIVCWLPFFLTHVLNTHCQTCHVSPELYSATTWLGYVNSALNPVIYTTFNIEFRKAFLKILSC

Compound: CCc1cc(Cl)c(OC)c(C(=O)NC[C@@H]2CCCN2)c1O.Cl [compound 5, (S)-3-chloro-5-ethyl-6-hydroxy-2-methoxy-N-(pyrrolidin-2-ylmethyl)benzamide hydrochloride, reference compound]
decrease in binding affinity at D2R compared to eticlopride [1]: 19 fold | decrease in binding affinity at D3R compared to eticlopride [2]: 4 fold

Compound: CCc1cc(Cl)c(OC)c(C(=O)NC[C@@H]2C[C@@H](OCCCCO)CN2)c1O [compound 51, 3-Chloro-5-ethyl-6-hydroxy-N-(((2S,4R)-4-(4-hydroxybutoxy)pyrrolidin-2-yl)methyl)-2-methoxybenzamide]
binding affinity at D2R (in words) [1]: low nanomolar range | binding affinity at D3R (in words) [2]: low nanomolar range

Compound: CCc1cc(Cl)c(OC)c(C(=O)NC[C@@H]2C[C@@H](OCCCc3ccccc3)CN2)c1O [50a, 3-Chloro-5-ethyl-6-hydroxy-2-methoxy-N-(((2S,4R)-4-(3-phenylpropoxy)pyrrolidin-2-yl)methyl)benzamide]
binding affinity at D2R (in words) [1]: low nanomolar range | binding affinity at D3R (in words) [2]: low nanomolar range

Compound: CCc1cc(Cl)c(OC)c(C(=O)NC[C@@H]2CCCN2Cc2ccccc2)c1OCc1ccccc1 [compound 8, (S)-2-(Benzyloxy)-N-((1-benzylpyrrolidin-2-yl)methyl)-5-chloro-3-ethyl-6-methoxybenzamide]
binding affinity at D2R (in words) [1]: low affinity | binding affinity at D3R (in words) [2]: low affinity

Compound: CCc1cc(Cl)c(OC)c(C(=O)NC[C@@H]2CCCN2CCc2c(C)nc3n(c2=O)CCCC3)c1O [compound 10, (S)-3-Chloro-5-ethyl-6-hydroxy-2-methoxy-N-((1-(2-(2-methyl-4-oxo-6,7,8,9-tetrahydro-4H-pyrido[1,2-a]pyrimidin-3-yl)ethyl)pyrrolidin-2-yl)methyl)benzamide]
D2R/D3R preference (in words) [2]: equiactive at D2R and D3R

Compound: CCc1cc(Cl)c(OC)c(C(=O)NC[C@@H]2C[C@@H](OCCCCOCc3ccccc3)CN2)c1O [50b, N-(((2S,4R)-4-(4-(Benzyloxy)butoxy)pyrrolidin-2-yl)methyl)-3-chloro-5-ethyl-6-hydroxy-2-methoxybenzamide]
binding affinity at D2R (in words) [1]: low nanomolar range | binding affinity at D3R (in words) [2]: low nanomolar range

Results, then the compound that gave them:

Ki difference, O-alkylated v. N-alkylated linker with the same SP [2]: ~ 31 fold
Compound: CCc1cc(Cl)c(OC)c(C(=O)NC[C@@H]2C[C@@H](OCCCCNC(=O)c3cc4ccccc4o3)CN2CC)c1O [compound 49, N-(4-(((3R,5S)-5-((3-chloro-5-ethyl-6-hydroxy-2-methoxybenzamido)methyl)-1-ethylpyrrolidin-3-yl)oxy)butyl)benzofuran-2-carboxamide]

functional efficacy at D3R (Go BRET activation) [3]: reference antagonist
Compound: CCc1cc(Cl)c(OC)c(C(=O)NC[C@@H]2CCCN2CC)c1O [eticlopride]

decrease in binding affinity at D2R compared to eticlopride [1]: 6 fold | decrease in binding affinity at D3R compared to eticlopride [2]: 2.6 fold
Compound: CCCN1CCC[C@H]1CNC(=O)c1c(O)c(CC)cc(Cl)c1OC [compound 6, (S)-3-Chloro-5-ethyl-6-hydroxy-2-methoxy-N-((1-propylpyrrolidin-2-yl)methyl)benzamide]

preference for D3R v. D2R ([2]; ratio of Ki D2R to Ki D3R): 3.6 fold
Compound: CCc1cc(Cl)c(OC)c(C(=O)NC[C@@H]2CCCN2CCCCOc2ccc3c(c2)NC(=O)CC3)c1O [compound 11, (S)-3-Chloro-5-ethyl-6-hydroxy-2-methoxy-N-((1-(4-((2-oxo-1,2,3,4-tetrahydroquinolin-7-yl)oxy)butyl)pyrrolidin-2-yl)methyl)benzamide]

Ki difference, O-alkylated v. N-alkylated linker with the same SP [2]: ~ 56 fold
Compound: CCc1cc(Cl)c(OC)c(C(=O)NC[C@@H]2C[C@@H](OCCCCNC(=O)c3cc4ccccc4[nH]3)CN2CC)c1O [compound 48, N-(4-(((3R,5S)-5-((3-Chloro-5-ethyl-6-hydroxy-2-methoxybenzamido)methyl)-1-ethylpyrrolidin-3-yl)oxy)butyl)-1H-indole-2-carboxamide]

D2R/D3R preference (in words) [2]: modest D3R preference was not seen
Compound: CCc1cc(Cl)c(OC)c(C(=O)NC[C@@H]2CCCN2CCCCNC(=O)c2cc3ccccc3o2)c1O [compound 13, (S)-N-(4-(2-((3-Chloro-5-ethyl-6-hydroxy-2-methoxybenzamido)methyl)pyrrolidin-1-yl)butyl) benzofuran-2-carboxamide]

decrease in binding affinity at D2R compared to eticlopride [1]: 1800 fold | decrease in binding affinity at D3R compared to eticlopride [2]: 268 fold
Compound: CCc1cc(Cl)c(OC)c(C(=O)NC[C@@H]2CCCN2Cc2ccccc2)c1O [compound 7, (S)-N-((1-Benzylpyrrolidin-2-yl)methyl)-3-chloro-5-ethyl-6-hydroxy-2-methoxybenzamide]
